Assay results: PubChem BioAssay AID1963847 (Molecular Pharmacology Branch, DTP, NCI, 2024)

System: 415267-285-R-J2-PDC complex spheroid viability
Assay: Anticancer human tumor 415267-285-R-J2-PDC patient-derived breast carcinoma cell line growth inhibition [POLQ]
Details: for IC50: curve of first compound; for viability, T/C: stronger effect = lower value
Outline: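 Patient-derived tumour cells were co-cultured with HUVEC and mesenchymal stem cells as multicellular spheroids at 37 °C. They were treated with POLQ inhibitors (novobiocin, ART-558, RP6685) alone or combined with other agents. Top concentrations were at or near clinical Cmax (otherwise 10 microM; SN-38 at 1 microM), decreasing in half-log steps.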
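Note: spheroids exposed to compounds for one week before readout.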
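Throughout, for viability, T/C: luminescence used as stand-in measure of viable cells; 100% = DMSO vehicle control viability.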

Compound: C#Cc1c(F)ccc2cc(O)cc(-c3ncc4c(N5CC6CCC(C5)N6)nc(OCC56CCCN5CC(F)C6)nc4c3F)c12 (configuration not stated) + Nc1ccc(C#CCN(C(=O)Cc2ncc(C(F)(F)F)cc2C(F)(F)F)c2ccc(F)cc2)nn1
- IC50 (second compound 0.0316 µM): > 10 µM
- IC50 (second compound 0.1 µM): > 10 µM
- IC50 (second compound 0.316 µM): > 10 µM
- IC50 (second compound 1 µM): > 10 µM
- IC50 (second compound 3.16 µM): > 10 µM
- IC50 (second compound 10 µM): > 10 µM
- viability, T/C (second compound 0.0316 µM, first compound 0.0316 µM): 105%
- viability, T/C (second compound 0.0316 µM, first compound 0.1 µM): 110%
- viability, T/C (second compound 0.0316 µM, first compound 0.316 µM): 84%
- viability, T/C (second compound 0.0316 µM, first compound 1 µM): 101%
- viability, T/C (second compound 0.0316 µM, first compound 3.16 µM): 97%
- viability, T/C (second compound 0.0316 µM, first compound 10 µM): 99.5%
- viability, T/C (second compound 0.1 µM, first compound 0.0316 µM): 100%
- viability, T/C (second compound 0.1 µM, first compound 0.1 µM): 96%
- viability, T/C (second compound 0.1 µM, first compound 0.316 µM): 94.4%
- viability, T/C (second compound 0.1 µM, first compound 1 µM): 98.6%
- viability, T/C (second compound 0.1 µM, first compound 3.16 µM): 97.3%
- viability, T/C (second compound 0.1 µM, first compound 10 µM): 92.3%
- viability, T/C (second compound 0.316 µM, first compound 0.0316 µM): 114%
- viability, T/C (second compound 0.316 µM, first compound 0.1 µM): 110%
- viability, T/C (second compound 0.316 µM, first compound 0.316 µM): 113%
- viability, T/C (second compound 0.316 µM, first compound 1 µM): 111%
- viability, T/C (second compound 0.316 µM, first compound 3.16 µM): 98.5%
- viability, T/C (second compound 0.316 µM, first compound 10 µM): 102%
- viability, T/C (second compound 1 µM, first compound 0.0316 µM): 105%
- viability, T/C (second compound 1 µM, first compound 0.1 µM): 102%
- viability, T/C (second compound 1 µM, first compound 0.316 µM): 95%
- viability, T/C (second compound 1 µM, first compound 1 µM): 112%
- viability, T/C (second compound 1 µM, first compound 3.16 µM): 96.1%
- viability, T/C (second compound 1 µM, first compound 10 µM): 105%
- viability, T/C (second compound 3.16 µM, first compound 0.0316 µM): 113%
- viability, T/C (second compound 3.16 µM, first compound 0.1 µM): 106%
- viability, T/C (second compound 3.16 µM, first compound 0.316 µM): 105%
- viability, T/C (second compound 3.16 µM, first compound 1 µM): 106%
- viability, T/C (second compound 3.16 µM, first compound 3.16 µM): 115%
- viability, T/C (second compound 3.16 µM, first compound 10 µM): 111%
- viability, T/C (second compound 10 µM, first compound 0.0316 µM): 97.7%
- viability, T/C (second compound 10 µM, first compound 0.1 µM): 103%
- viability, T/C (second compound 10 µM, first compound 0.316 µM): 102%
- viability, T/C (second compound 10 µM, first compound 1 µM): 96.4%
- viability, T/C (second compound 10 µM, first compound 3.16 µM): 102%
- viability, T/C (second compound 10 µM, first compound 10 µM): 116%
